Measurements published in US20250326748A1, “COMPOUNDS AND METHODS FOR MODULATING SPLICING” (REMIX THERAPEUTICS INC., priority 2022, published 2025).
Structures can show the parent of a compound that is named as a salt. Where two headings read alike, the source gives them in different places.

Key:
[1] = tested on: MYB mRNA; test: Splicing RT-qPCR assay, MYB canonical (CJ) and alternative (AJ) junction mRNA; type: cell-based, human; details: Homo sapiens; for IC50: canonical junction mRNA; for AC50: alternative junction mRNA, read-out: MYB AJ (AC50, increase in AJ mRNA)
Description: (§1) Compounds described herein were used to modulate RNA transcript abundance in cells. The expression of a target mRNA was measured by detecting the formation of an exon-exon junction in the canonical transcript (CJ). A compound mediated exon-inclusion event was detected by observing an increase in formation of a new junction with an alternative exon (AJ). Real-time qPCR assays were used to detect these splicing switches and interrogate the potency of various compounds towards different target genes. A high-throughput real time quantitative PCR (RT-qPCR) assay was developed to measure these two isoforms of the mRNA (CJ and AJ) for exemplary genes, such as HTT, SMN2, and MYB, together with a control housekeeping gene, GAPDH or GUSB or PPIA, used for normalization. Briefly, the A673 or K562 cell line was treated with various compounds described herein (e.g., compounds of Formula (D). After treatment, the levels of the HTT, MYB, or SMN2 mRNA targets were determined from each sample of cell lysate by cDNA synthesis followed by qPCR.
(§2) • Cells-to-CT 1-step kit: ThermoFisher A25602, Cells-to-CT lysis reagent: ThermoFisher 4391851C, TaqMan™ Fast Virus 1-Step Master Mix: ThermoFisher 4444436 • GAPDH: VIC-PL, ThermoFisher 4326317E (Assay: Hs99999905_m1)—used for K562/suspension cell lines • GUSB: VIC-PL, ThermoFisher 4326320E (Assay: Hs99999908_m1)—used for K562/suspension cell lines • PPIA: VIC-PL, ThermoFisher 4326316E (Assay: Hs99999904_m1)—used for A673/adherent cell lines
(§3) The A673 cell line was cultured in DMEM with 10% FBS. Cells were diluted with full growth media and plated in a 96-well plate (15,000 cells in 100 ul media per well). The plate was incubated at 37° C. with 5% CO2 for 24 hours to allow cells to adhere. An 11-point 3-fold serial dilution of the compounds was made in DMSO then diluted in media in an intermediate plate. Compounds were transferred from the intermediate plate to the cell plate with the top dose at a final concentration of 10 uM in the well. Final DMSO concentration was kept at or below 0.25%. The cell plate was returned to the incubator at 37° C. with 5% CO2 for an additional 24 hours.
(§4) The K562 cell line was cultured in IMDM with 10% FBS. For K562, cells were diluted with full growth media and plated in either a 96-well plate (50,000 cells in 50 uL media per well) or a 384-well plate (8,000-40,000 cells in 45 uL media per well). An 11-point 3-fold serial dilution of the compounds were made in DMSO then diluted in media in an intermediate plate. Compound was transferred from the intermediate plate to the cell plate with the top dose at a final concentration of 10 uM in the well. Final DMSO concentration was kept at or below 0.25%. Final volume was 100 uL for 96-well plate and 50 uL for 384-well plate. The cell plate was then placed in an incubator at 37° C. with 5% CO2 for 24 hours.
(§5) The cells were then gently washed with 50 uL-100 uL cold PBS before proceeding to addition of lysis buffer. 30 uL-50 μL of room temperature lysis buffer with DNAse I (and optionally RNAsin) was added to each well. Cells were shaken/mixed thoroughly at room temperature for 5-10 minutes for lysis to take place and then 3 uL-5 μL of room temperature stop solution was added and wells were shaken/mixed again. After 2-5 minutes, the cell lysate plate was transferred to ice for RT-qPCR reaction setup. The lysates could also be frozen at −80° C. for later use.
(§6) In some cases, a direct lysis buffer was used. An appropriate volume of 3× lysis buffer (10 mM Tris, 150 mM NaCl, 1.5%-2.5% Igepal and 0.1-1 U/uL RNAsin, pH 7.4) was directly added to either K562 or A673 cells in media and mixed by pipetting 3 times. The plates were then incubated at room temperature with shaking/rocking for 20-50 minutes to allow for lysis to take place. After this time, the cell lysate plate was transferred to ice to set up for the RT-qPCR reactions. The lysates could also be frozen at −80° C. for later use. […]

[2] = tested on: SMN2 mRNA; test: Splicing RT-qPCR panel, SMN2 canonical junction (CJ) mRNA; type: cell-based, human; details: Homo sapiens, read-out: SMN2 CJ (decrease in CJ mRNA levels, IC50)
Description: as §1, §3, §4, §5
(§7) In some cases, a direct lysis buffer was used. An appropriate volume of 3× lysis buffer (10 mM Tris, 150 mM NaCl, 1.5%-2.5% Igepal and 0.1-1 U/uL RNAsin, pH 7.4) was directly added to either K562 or A673 cells in media and mixed by pipetting 3 times. The plates were then incubated at room temperature with shaking/rocking for 20-50 minutes to allow for lysis to take place. After this time, the cell lysate plate was transferred to ice to set up for the RT-qPCR reactions. The lysates could also be frozen at −80° C. for later use.
(§8) To set up 10 uL RT-qPCR reactions, cell lysates were transferred to 384-well qPCR plates containing the master mix according to the table below. The plates were sealed, gently vortexed, and spun down before the run. The volumes were adjusted accordingly in some instances where the reaction was carried in 20 μL. The table below summarizes the components of the RT-qPCR reactions:
(§9) The RT-qPCR reaction was performed using a QuantStudio (ThermoFisher) under the following fast cycling conditions. […]

[3] = tested on: HTT mRNA; test: Splicing RT-qPCR assay, HTT canonical (CJ) and alternative (AJ) junction mRNA; type: cell-based, human; details: Homo sapiens; for IC50: canonical junction mRNA; for AC50: alternative junction mRNA, read-out: HTT AJ (AC50, increase in AJ mRNA)
Description: as §1, §2, §3, §4, §5, §6

[4] = tested on: Target C mRNA; test: Splicing RT-qPCR panel, Target C canonical junction (CJ) mRNA; type: cell-based, human; details: Homo sapiens, read-out: Target C CJ (decrease in CJ mRNA levels, IC50)
Description: as §1, §3, §4, §5, §7, §8, §9

[5] = tested on: K562 cells; test: Cell viability, Cell Titer Glo 2.0 assay, K562; details: 72 hours
Description: Compounds described herein were screened for toxicity in K562 (human chronic myelogenous leukemia) and SH-SY5Y (human neuroblastoma) cells using a Cell Titer Glo 2.0 assay.
• Promega CellTiter-Glo® 2.0 Cell Viability Assay (cat #G9241) • Corning 384-well TC-treated microplates (cat #3570)
Cells were plated at 500 cells/well (K562 cells) in 45 μL of IMDM supplemented with 10% FBS in a 384-well opaque plate. Wells containing only medium were used as a blank control. Test compounds (e.g., compounds of Formula (I) or (II)) were first serially diluted in DMSO then diluted 1:100 with IMDM+10% FBS. The final concentration of DMSO was 0.1% in each well. The cells were incubated for 72 hours at 37° C. and 5% CO2 before assaying with Cell Titer Glo 2.0 reagent.

[6] = qPCR panel, read-out: MYB CJ (decrease in CJ mRNA levels, IC50)
[7] = RT-qPCR, A673 or K562 cells, 24 hours treatment
[8] = RT-qPCR, A673 or K562 cells, 24 hours treatment, read-out: MYB CJ (IC50, decrease in CJ mRNA)
[9] = 24 h, RT-qPCR, A673 or K562 cells, 24 hours treatment, read-out: HTT CJ (IC50, decrease in CJ mRNA)
[10] = qPCR panel, read-out: HTT CJ (decrease in CJ mRNA levels, IC50)

Cc1c(O)c(-c2ccc3nc(N4CCNC(C)C4)cnc3n2)cc2cn(C)nc12 (stereo not shown) [Cmpd 196]
IC50 [1, 6]: 0.1 to 1 µM
AC50 [1, 7]: < 0.1 µM
IC50 [1, 8]: 0.1 to 1 µM
IC50 [2]: < 0.1 µM
IC50 [3, 9]: 0.1 to 1 µM
IC50 [3, 10]: 0.1 to 1 µM
AC50 [3, 7]: 1 to 10 µM
IC50 [4]: 1 to 10 µM

CNC1CCN(c2cnc3nc(-c4cc5cn(C)nc5c(C)c4O)ccc3c2)C1 (stereo not shown) [Compound 113, 2,7-dimethyl-5-{6-[3-(methylamino)pyrrolidin-1-yl]-1,8-naphthyridin-2-yl}indazol-6-ol]
IC50 [1, 6]: < 0.1 µM
AC50 [1, 7]: < 0.1 µM
IC50 [1, 8]: < 0.1 µM
IC50 [2]: < 0.1 µM
IC50 [3, 9]: 0.1 to 1 µM
IC50 [3, 10]: 0.1 to 1 µM
AC50 [3, 7]: 0.1 to 1 µM
IC50 [4]: 0.1 to 1 µM

Cn1cc2cc(-c3cc(Cl)c4cc(N5CC[C@@H](NCCF)C5)cnc4n3)c(O)cc2n1 [Compound 387, 5-{4-chloro-6-[(3R)-3-[(2-fluoroethyl)amino]pyrrolidin-1-yl]-1,8-naphthyridin-2-yl}-2-methylindazol-6-ol hydrochloride]
Effect on Cell Viability, K562 [5]: B (100-1000 nM)
IC50 [1, 6]: < 0.1 µM
AC50 [1, 7]: < 0.1 µM
IC50 [1, 8]: < 0.1 µM
IC50 [3, 9]: 0.1 to 1 µM
IC50 [3, 10]: 0.1 to 1 µM
AC50 [3, 7]: 0.1 to 1 µM
IC50 [4]: 1 to 10 µM

Cl.Cn1cc2cc(-c3cc(Cl)c4cc(N5CC[C@H](NCCF)C5)cnc4n3)c(O)cc2n1 [Compound 389]
Effect on Cell Viability, K562 [5]: B (100-1000 nM)
IC50 [1, 6]: 0.1 to 1 µM
AC50 [1, 7]: < 0.1 µM
IC50 [1, 8]: 0.1 to 1 µM
IC50 [3, 10]: 1 to 10 µM
AC50 [3, 7]: 1 to 10 µM
IC50 ([3]; RT-qPCR, A673 or K562 cells, 24 hours treatment, read-out: HTT CJ (IC50, decrease in CJ mRNA)): 1 to 10 µM
IC50 [4]: 1 to 10 µM

C[C@@H]1CN(c2cnc3nc(-c4cc(F)c5nn(C)cc5c4)ccc3c2Cl)C[C@H](C)N1 [Compound 391]
Effect on Cell Viability, K562 [5]: B (100-1000 nM)
IC50 [1, 6]: 0.1 to 1 µM
AC50 [1, 7]: 0.1 to 1 µM
IC50 [1, 8]: 0.1 to 1 µM
IC50 [3, 9]: > 10 µM
IC50 [3, 10]: > 10 µM
AC50 [3, 7]: 1 to 10 µM
IC50 [4]: 1 to 10 µM

Cc1cn2nc(-c3ccc4c(Cl)c(N5C[C@@H](C)N[C@@H](C)C5)cnc4n3)cc(C)c2n1 [Compound 392]
Effect on Cell Viability, K562 [5]: B (100-1000 nM)
IC50 [1, 6]: 0.1 to 1 µM
AC50 [1, 7]: 0.1 to 1 µM
IC50 [1, 8]: 0.1 to 1 µM
IC50 [3, 9]: 1 to 10 µM
IC50 [3, 10]: 1 to 10 µM
AC50 [3, 7]: 1 to 10 µM
IC50 [4]: 1 to 10 µM

Cc1c(N2C[C@H](C)N[C@@H](C)C2)cnc2nc(-c3cc4cn(C)nc4c(C)c3O)ccc12 [Compound 395, 5-{6-[(3S,5S)-3,5-dimethylpiperazin-1-yl]-5-methyl-1,8-naphthyridin-2-yl}-2,7-dimethylindazol-6-ol]
Effect on Cell Viability, K562 [5]: B (100-1000 nM)
IC50 [1, 6]: < 0.1 µM
AC50 [1, 7]: 0.1 to 1 µM
IC50 [1, 8]: < 0.1 µM
IC50 [3, 9]: 0.1 to 1 µM
IC50 [3, 10]: 0.1 to 1 µM
AC50 [3, 7]: 1 to 10 µM
IC50 [4]: 1 to 10 µM

Cc1c(N2C[C@@H](C)N[C@@H](C)C2)cnc2nc(-c3cc4cn(C)nc4cc3O)ccc12 [Compound 487]
IC50 [1, 6]: 1 to 10 µM
AC50 [1, 7]: 1 to 10 µM
IC50 [1, 8]: 1 to 10 µM
IC50 [2]: < 0.1 µM
IC50 [3, 9]: > 10 µM
IC50 [3, 10]: > 10 µM
AC50 [3, 7]: > 10 µM

C[C@@H]1CN(c2cnc3nc(-c4cc5cn(C)nc5cc4O)ccc3c2Cl)C[C@H](C)N1 [Compound 492]
IC50 [1, 6]: < 0.1 µM
AC50 [1, 7]: < 0.1 µM
IC50 [1, 8]: < 0.1 µM
IC50 [2]: < 0.1 µM
IC50 [3, 9]: 1 to 10 µM
IC50 [3, 10]: 1 to 10 µM
AC50 [3, 7]: 1 to 10 µM

Cn1cc2cc(-c3cc(Cl)c4cc(N5CC[C@H](NC(C)(C)C)C5)cnc4n3)c(O)c(F)c2n1 [Compound 497]
IC50 [1, 6]: < 0.1 µM
AC50 [1, 7]: < 0.1 µM
IC50 [1, 8]: < 0.1 µM
IC50 [2]: < 0.1 µM
IC50 [3, 9]: < 0.1 µM
IC50 [3, 10]: < 0.1 µM
AC50 [3, 7]: 0.1 to 1 µM

Cn1cc2cc(-c3cc(Cl)c4cc(N5CC[C@@H](NC(C)(C)C)C5)cnc4n3)c(O)c(F)c2n1 [Compound 498]
IC50 [1, 6]: 0.1 to 1 µM
AC50 [1, 7]: 0.1 to 1 µM
IC50 [1, 8]: 0.1 to 1 µM
IC50 [2]: < 0.1 µM
IC50 [3, 9]: > 10 µM
IC50 [3, 10]: > 10 µM
AC50 [3, 7]: > 10 µM

Cn1cc2cc(-c3ccc4c(Cl)c(N5CCNC6(CC6)C5)cnc4n3)c(O)cc2n1 [Compound 500, 5-[5-chloro-6-(4,7-diazaspiro[2.5]octan-7-yl)-1,8-naphthyridin-2-yl]-2-methyl-indazol-6-ol]
IC50 [1, 6]: 0.1 to 1 µM
AC50 [1, 7]: 0.1 to 1 µM
IC50 [1, 8]: 0.1 to 1 µM
IC50 [2]: < 0.1 µM
IC50 [3, 9]: 1 to 10 µM
IC50 [3, 10]: 1 to 10 µM
AC50 [3, 7]: 1 to 10 µM
